From patent US8808721B2, “Bed bug attractants and methods for trapping bed bugs” (SpringStar Inc., priority 2011, dated 2014) come the findings set out here.

The subject of assay [1] is bed bugs. Briefly: ST traps, kairomone components (Example 9). The conditions noted are these: combined with CO2 and heat, Location 4. Type of assay: in vivo, Cimex lectularius. The procedure: The kairomone composition of A1 was split into it components by chemical class, to determine if all components were necessary. Three new kairomone blends were tested (Table 3, Example 4). Blend A2 contained only skatole and androstenone (male boar compounds), and the adjuvants. Blend A3 contained all the ingredients from A1, but in slightly different ratios. Blend A4 contained only the fatty acid components and adjuvants. Four treatments were tested as follows: T0=CF1S+HW;T1=CF1+HW+A3;T2=CF1+HW+A2;T3=CF1+HW+A4
For treatment T0, the CO2 blend was made without skatole (CF1S, Table 1, Example 1). All treatments were tested using ST traps assembled as in Example 4.
A new location was used for testing kairomone components. Location 4 was an inhabited, 2-bedroom duplex in the suburbs of Seattle. Vacuum sampling estimated bed bug populations in each room at between 2,000 and 10,000 insects, which is considered heavily infested. Two people slept in the bedrooms on cots raised 50 cm off the carpet, which were then isolated from bed bugs in harborages by placing under each bed leg a plastic 16 oz drinking cup filled with propylene glycol or white pepper powder. […]

Assay [2] relates to bed bugs. Briefly: ST traps, adding skatole to carbon dioxide bait (Example 10). Also on record: species or system Cimex lectularius. The following applies: in vivo. The text has this:
Four ST traps from Example 3, baited with CF1, were paired with four ST traps baited with CF1S. Traps were placed in each of four corners of the location in Example 3. Traps were retrieved after one night. […] Additionally, all CF1 traps caught at least 2 bed bugs whereas half of the CF1S traps caught no bed bugs.

SMILES strings stand for the structures.

With `C[C@]12CCC(=O)C[C@@H]1CC[C@@H]1[C@@H]2CC[C@]2(C)C=CC[C@@H]12` [androstenone], the “attractiveness of kairomone blend or component to bed bugs” value in the assay on bed bugs [1] is “acted synergistically with the fatty acid compounds to attract bed bugs”. Take `Cc1c[nH]c2ccccc12` [skatole, 3-methyl indole]: in the assay on bed bugs [2], the “effect of adding to the fermentative mixture on trap attractiveness” value is “increased trap attractiveness to bed bugs”.
